We go through two molecules from publication PMC7070167, “Cell‐permeable high‐affinity tracers for Gq proteins provide structural insights, reveal distinct binding kinetics and identify small molecule inhibitors” (British Journal of Pharmacology, 2020).

Assay [1] has as its target T1, Gq proteins (Homo sapiens, UniProt P50148).
T1 construct: Native cell membrane preparations from rat brain cortex and human blood platelets; host or cells: human platelets (intact suspension or membrane preparation)
T1 sequence (P50148 1-359): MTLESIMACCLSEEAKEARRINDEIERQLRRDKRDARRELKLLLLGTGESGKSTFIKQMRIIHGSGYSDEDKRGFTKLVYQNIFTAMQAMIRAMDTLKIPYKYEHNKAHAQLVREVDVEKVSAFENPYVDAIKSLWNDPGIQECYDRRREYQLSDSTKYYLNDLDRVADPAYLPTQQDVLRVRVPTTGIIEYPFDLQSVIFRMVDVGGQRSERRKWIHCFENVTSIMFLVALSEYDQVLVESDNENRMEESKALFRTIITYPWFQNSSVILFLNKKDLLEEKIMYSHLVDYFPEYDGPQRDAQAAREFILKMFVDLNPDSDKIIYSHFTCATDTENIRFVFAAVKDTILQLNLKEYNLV
Description: Competition binding at intact human platelets. The following applies: 37°C. The procedure:
Apheresis‐purified human thrombocyte‐plasma concentrates (PRP) were obtained from the blood bank, University of Bonn, in accordance with ethical guidelines, and directly used. For radioligand binding assays, they were diluted with 50‐mM Tris–HCl buffer, pH 7.4, to obtain a concentration of 7.5 × 10^6 platelets/50 μl (corresponding to a 1:10 dilution).
(§1) The experiments were performed in 50‐mM Tris–HCl buffer, pH 7.4. The final assay volume of 200 μl contained 5 μl of test compound in DMSO, 50 μl of [^3H]PSB‐15900 or [^3H]PSB‐16254, respectively, in buffer, 5 nM of final concentration, and 100 μl of human platelet membrane preparation (50 μg of protein) or intact human platelets (7.5 × 10^6 cells/vial). Non‐specific binding was determined in the presence of 5‐μM FR. The incubation was started by the addition of membrane preparation and was performed at 37°C for 1 hr with gentle shaking. It was terminated by rapid vacuum filtration through GF/C glass‐fibre filters using a Brandel 24‐well harvester. The filters were rinsed three times with approximately 3 ml each of ice‐cold Tris–HCl buffer, 50 mM, pH 7.4 containing 0.1% Tween 20 and 0.1% BSA, to separate bound from free radioligand. The filters were punched out and transferred to scintillation vials. Luma Safe® scintillation cocktail (2.5 ml) was added, and after 6 hr of incubation, the samples were counted for 1 min each, using a liquid scintillation counter (counting efficiency 53%). Experiments in the presence of GTP were additionally performed after preincubation of the membrane preparation with GTP for 1 hr. pIC50 and pKi values were calculated using equations for one‐site competition as implemented in GraphPad Prism 6.01 (GraphPad Inc., La Jolla, CA, USA).

The target of assay [2] is T1, Gq proteins. Description: Competition binding at human platelet membrane preparations. The following applies: for Ki / pseudo‐Bmax from pseudohomologous competition: human platelet membranes, 37°C. Here is the method:
Apheresis‐purified human thrombocyte‐plasma concentrates were centrifuged (1,000 g at 4°C for 10 min), and the supernatant was decanted and centrifuged again (at 48,400 g, 4°C, for 60 min). The supernatant was kept and used as platelet‐poor plasma for control experiments; the formed pellet was resuspended in buffer 1 (50‐mM Tris–HCl, 5‐mM EDTA, and 150‐mM NaCl) and centrifuged at 48,400 g, 4°C for 60 min. The supernatant was discarded again and the pellet was resuspended in buffer 2 (5‐mM Tris–HCl and 5‐mM EDTA). The cell suspension was homogenized using an Ultra‐Turrax® (IKA Laborechnik, Staufen, Germany) for 1 min at a speed level of 4, subsequently transferred into cryovials, and stored at −80°C before use (the preparation is stable for several months). For radioligand binding assays, 50 μg of protein per vial was used, determined by the method of Bradford (Bio‐Rad Protein Assay).
as §1

Assay [3] concerns Gq signalling via endogenously expressed M3 receptor. Briefly: Calcium mobilization assay, carbachol-induced (M3 receptor) in 1321N1 astrocytoma cells. Format: cell-based, human. To be noted: Homo sapiens, versus Carbachol (EC80), M3 receptor, read-out: pIC50, inhibition of calcium mobilization (converted). Here is the method: The functional activity of YM, FR, and Ebselen as Gq protein inhibitors was determined by assessing their ability to antagonize ADP‐induced calcium mobilization in 1321N1 astrocytoma cells stably transfected with the human P2Y1 receptor, which is a Gq‐coupled receptor. In addition, the compounds' inhibitory effects on Carbachol‐induced calcium mobilization were studied in the same cell line, which endogenously express the Gq‐coupled muscarinic M3 ACh receptor. The assays were performed according to a previously described procedure (Rafehi et al., 2017) using a NOVOstar microplate reader (BMG Labtech, Offenburg, Germany).

[4] abbreviates: versus [^3H]PSB‐15900 (5 nM), read-out: pKi (converted).
The mark [5] stands for this setting: versus [³H]PSB-15900 (5 nM), read-out: Ki.
Where [6] appears, read: pKi, versus [^3H]PSB‐15900 (5 nM).
Where [7] appears, read: pKi, versus [^3H]PSB‐16254 (5 nM).

“And” between values parts separate entries of the source, which are not always exact repeats. Equal entries are not always repeated. *1 amine or outer side, *2 acyl side, *3 side chain or, on linkers, in order; H or OH if unused. Where a SMILES comes first, the peptide text is derived from it. Bridges are numbered along the chain shown (N, C = ends). [ ]: non-standard residue; d: D form. The star is where a group is joined. Leu(3R-O(AcLeu(3R-OH))) = CC(=O)N[C@H](C(=O)O[C@H](C(C)C)[C@H](N)C(=O)O)[C@H](O)C(C)C; Leu(3R-OH,Nα-propionyl) = CCC(=O)N[C@H](C(=O)*)[C@H](O)C(C)C; X1 = CC(C)[C@@H](O[*:3])[C@H](N[*:1])C(=O)[*:2]; NMeT = CN[C@H](C(=O)O)[C@@H](C)O; dPhLac = O=C(O)[C@H](O)Cc1ccccc1; NMeA = CN[C@@H](C)C(=O)O; NMeDha = C=C(NC)C(=O)O

Take `C=C1C(=O)N[C@@H](C)C(=O)N(C)[C@@H](C)C(=O)N[C@@H]([C@H](OC(=O)[C@@H](NC(C)=O)[C@H](O)C(C)C)C(C)C)C(=O)N(C)[C@@H]([C@@H](C)OC)C(=O)O[C@H](C)[C@H](NC(C)=O)C(=O)O[C@H](Cc2ccccc2)C(=O)N1C` [YM, YM‐254890] (Ac-T[dPhLac][NMeDha]A[NMeA][Leu(3R-O(AcLeu(3R-OH)))][NMeT](Me); ester 1-C): the Ki was 2.09 nM on Gq proteins [1] (setting [4]); 2.29 ± 0.38 nM at Gq proteins [1] (setting [5]); 3 to 5 nM on Gq proteins [2] (Ki, versus both radioligands); 5.01 nM at Gq proteins [2] (setting [6]); 6.31 nM on Gq proteins [2] (setting [7]). At Gq proteins [2], binding was characterised by a dissociation constant (Kd) of 6.29 ± 0.84 nM. In addition, the “pseudo‐Bmax from pseudohomologous competition” value at Gq proteins [2] (versus [^3H]PSB‐16254 (5 nM)) is 6.61 ± 0.60 pmol·mg^−1 of protein and 6.61 pmol·mg^−1 of protein. In addition, the IC50 in assay [3] is 0.891 nM.

For the molecule `C=C1C(=O)N[C@@H](C)C(=O)N(C)[C@@H](C)C(=O)N[C@@H]([C@H](OC(=O)[C@@H](NC(=O)CC)[C@H](O)C(C)C)C(C)C)C(=O)N(C)[C@@H]([C@@H](C)OC)C(=O)O[C@H](C(C)C)[C@H](NC(C)=O)C(=O)O[C@H](Cc2ccccc2)C(=O)N1C` [FR, FR900359] (Ac-[X1][dPhLac][NMeDha]A[NMeA][X1](Leu(3R-OH,Nα-propionyl))[NMeT](Me); ester 1-C), the Ki at Gq proteins [1] (setting [4]) is 2.09 nM; at Gq proteins [1] (setting [5]) it was 2.14 ± 0.87 nM; on Gq proteins [2] (Ki, versus both radioligands) it was 3 to 5 nM; on Gq proteins [2] (Ki, versus [³H]PSB-15900 (5 nM), standard 24-well format), 6.91 ± 2.25 nM; at Gq proteins [2] (setting [6]) it was 4.07 nM; on Gq proteins [2] (setting [7]) it was 2.51 nM. The molecule also showed a Ki on Gq proteins [2] (pKi, versus [³H]PSB-15900 (5 nM), standard 24-well format) of 6.76 nM. Further, the affinity at Gq proteins [2], expressed as Kd, was 4.1 ± 0.5 nM. In addition, the “pseudo‐Bmax from pseudohomologous competition” value at Gq proteins [2] (versus [^3H]PSB‐15900 (5 nM)) was 6.28 ± 1.12 pmol·mg^−1 of protein and 6.28 pmol·mg^−1 of protein. Moreover, the IC50 in assay [3] is 0.741 nM.
